Measured values published in ChEMBL document CHEMBL3880411, “Multikinase inhibitors for use in the treatment of cancer” (2009).
The source made the active and inactive calls. The calls are words filed in the database; no cut-off is given here.

Assays:
[1] = Cytotoxicity against human SW620 cells expressing K-ras G12V mutant assessed as reduction in cell viability after 96 hrs by CellTiter-Glo luminescence assay or methylene blue assay; format: functional, cell-based; details: SW-620, 96 h
[2] = Cytotoxicity against human PANC1 cells expressing K-ras G12D mutant assessed as reduction in cell viability after 96 hrs by CellTiter-Glo luminescence assay or methylene blue assay; format: functional, cell-based; details: PANC-1, 96 h
[3] = Cytotoxicity against human MES-SA/Dx5-Rx1 cells assessed as reduction in cell viability after 96 hrs by CellTiter-Glo luminescence assay or methylene blue assay; format: functional, cell-based
[4] = Cytotoxicity against human MCF7 cells assessed as reduction in cell viability after 96 hrs by CellTiter-Glo luminescence assay or methylene blue assay; format: functional, cell-based; details: MCF7, 96 h
[5] = Antiproliferative activity against human THP1 cells after 96 hrs by MTT assay; format: functional, cell-based; details: THP-1, 96 h
[6] = target: T1, Dual specificity mitogen-activated protein kinase kinase 1 (Homo sapiens, UniProt Q02750); assay: Inhibition of human MEK1 assessed as remaining activity at 1 uM after 40 mins in presence of [gamma33P-ATP] by scintillation counting
T1 sequence (Q02750 whole entry): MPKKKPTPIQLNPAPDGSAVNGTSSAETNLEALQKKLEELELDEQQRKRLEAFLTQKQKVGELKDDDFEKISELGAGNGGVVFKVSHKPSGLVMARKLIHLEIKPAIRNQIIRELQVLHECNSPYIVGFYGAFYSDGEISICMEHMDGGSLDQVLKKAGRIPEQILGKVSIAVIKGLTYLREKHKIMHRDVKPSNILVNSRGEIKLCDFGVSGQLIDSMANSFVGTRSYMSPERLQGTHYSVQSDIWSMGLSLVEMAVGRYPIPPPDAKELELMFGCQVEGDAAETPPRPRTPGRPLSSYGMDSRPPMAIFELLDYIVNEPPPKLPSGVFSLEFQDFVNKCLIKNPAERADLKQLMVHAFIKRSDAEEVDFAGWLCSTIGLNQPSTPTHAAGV

[7] = Cytotoxicity against human SK-MEL-3 cells expressing B-RAF V600E mutant assessed as reduction in cell viability after 96 hrs by CellTiter-Glo luminescence assay or methylene blue assay; format: functional, cell-based; details: SK-MEL3, 96 h
[8] = target: Tyrosine-protein kinase Lck (Homo sapiens) (UniProt P06239); assay: Inhibition of human Lck assessed as remaining activity at 0.1 uM after 40 mins in presence of [gamma33P-ATP] by scintillation counting
Sequence of Tyrosine-protein kinase Lck (Homo sapiens) (P06239 2-509 limits assumed): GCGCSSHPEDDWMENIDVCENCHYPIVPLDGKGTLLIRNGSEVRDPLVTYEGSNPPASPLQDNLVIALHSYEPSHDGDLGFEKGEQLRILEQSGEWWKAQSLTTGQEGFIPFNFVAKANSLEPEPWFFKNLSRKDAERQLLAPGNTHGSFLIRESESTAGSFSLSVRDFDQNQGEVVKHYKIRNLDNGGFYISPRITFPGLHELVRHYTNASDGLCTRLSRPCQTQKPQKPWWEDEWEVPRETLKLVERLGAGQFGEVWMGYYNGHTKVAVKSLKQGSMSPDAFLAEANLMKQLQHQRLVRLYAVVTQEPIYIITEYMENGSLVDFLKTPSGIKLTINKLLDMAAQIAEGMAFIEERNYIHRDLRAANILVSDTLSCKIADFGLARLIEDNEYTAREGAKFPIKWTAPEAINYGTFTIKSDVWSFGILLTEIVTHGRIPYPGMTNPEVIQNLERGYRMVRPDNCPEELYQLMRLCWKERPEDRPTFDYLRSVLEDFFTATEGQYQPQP

[9] = Cytotoxicity against human LoVo cells expressing K-ras G13D mutant assessed as reduction in cell viability after 96 hrs by CellTiter-Glo luminescence assay or methylene blue assay; format: functional, cell-based
[10] = Cytotoxicity against human MES-SA cells assessed as reduction in cell viability after 96 hrs by CellTiter-Glo luminescence assay or methylene blue assay; format: functional, cell-based
[11] = Cytotoxicity against human MDA-MB-435 cells expressing B-RAF V600E mutant assessed as reduction in cell viability after 96 hrs by CellTiter-Glo luminescence assay or methylene blue assay; format: functional, cell-based; details: MDA-MB-435, 96 h
[12] = Antiproliferative activity against human NALM6 cells after 96 hrs by MTT assay; format: functional, cell-based; details: NALM-6, 96 h
[13] = Cytotoxicity against human DLD1 cells expressing K-ras G13D mutant assessed as reduction in cell viability after 96 hrs by CellTiter-Glo luminescence assay or methylene blue assay; format: functional, cell-based; details: DLD-1, 96 h
[14] = Antiproliferative activity against human U266 cells after 96 hrs by MTT assay; format: functional, cell-based; details: U-266, 96 h
[15] = Cytotoxicity against human HT-29 cells expressing B-RAF V600E mutant assessed as reduction in cell viability after 96 hrs by CellTiter-Glo luminescence assay or methylene blue assay; format: functional, cell-based; details: HT-29, 96 h
[16] = Antiproliferative activity against human HL60 cells after 96 hrs by MTT assay; format: functional, cell-based; details: HL-60, 96 h
[17] = target: Tyrosine-protein kinase Yes (Homo sapiens) (UniProt P07947); assay: Inhibition of human Yes assessed as remaining activity at 1 uM after 40 mins in presence of [gamma33P-ATP] by scintillation counting
Sequence of Tyrosine-protein kinase Yes (Homo sapiens) (P07947 2-543 limits assumed): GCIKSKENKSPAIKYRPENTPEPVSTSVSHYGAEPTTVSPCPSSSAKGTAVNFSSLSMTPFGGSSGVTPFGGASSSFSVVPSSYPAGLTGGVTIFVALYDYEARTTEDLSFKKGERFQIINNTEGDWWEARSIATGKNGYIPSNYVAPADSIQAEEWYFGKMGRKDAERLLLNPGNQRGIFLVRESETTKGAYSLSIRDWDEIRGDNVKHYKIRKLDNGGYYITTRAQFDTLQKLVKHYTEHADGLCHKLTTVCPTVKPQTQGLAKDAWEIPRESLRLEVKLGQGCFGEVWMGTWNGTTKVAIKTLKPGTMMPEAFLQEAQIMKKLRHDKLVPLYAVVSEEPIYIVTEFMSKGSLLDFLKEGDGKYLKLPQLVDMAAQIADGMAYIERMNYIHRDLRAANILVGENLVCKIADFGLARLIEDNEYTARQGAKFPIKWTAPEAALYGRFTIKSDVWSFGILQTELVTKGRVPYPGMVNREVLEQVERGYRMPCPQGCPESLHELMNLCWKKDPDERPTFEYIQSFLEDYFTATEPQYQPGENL

[18] = target: T1, Dual specificity mitogen-activated protein kinase kinase 1; assay: Inhibition of human MEK1 assessed as remaining activity at 0.1 uM after 40 mins in presence of [gamma33P-ATP] by scintillation counting
[19] = Cytotoxicity against human SK-MEL-2 cells expressing N-ras Q61R mutant assessed as reduction in cell viability after 96 hrs by CellTiter-Glo luminescence assay or methylene blue assay; format: functional, cell-based; details: SK-MEL-2, 96 h
[20] = Cytotoxicity against human IMR90 cells assessed as reduction in cell viability after 96 hrs by CellTiter-Glo luminescence assay or methylene blue assay; format: functional, cell-based; details: IMR-90, 96 h
LOX = assay: (§1) Antitumor activity against human LOX cells expressing B-RAF V600E mutant xenografted in athymic mouse assessed as tumor regression at 10 to 40 mg/kg, iv administered for two weekly rounds of five injections daily with two-day rest period between the rounds measured at end of study; format: functional, organism-based
[21] = Cytotoxicity against human MDA-MB-231 cells expressing K-ras G13D mutant assessed as reduction in cell viability after 96 hrs by CellTiter-Glo luminescence assay or methylene blue assay; format: functional, cell-based; details: MDA-MB-231, 96 h
[22] = as §1, with “20” for “10”, “twice weekly from first day” for “at end”, “treatment” for “study”; format: functional
[23] = Antiproliferative activity against human K562 cells after 96 hrs by MTT assay; format: functional, cell-based; details: K562, 96 h
[24] = target: Tyrosine-protein kinase Lck (Homo sapiens) (UniProt P06239); assay: Inhibition of human Lck assessed as remaining activity at 1 uM after 40 mins in presence of [gamma33P-ATP] by scintillation counting
[25] = Cytotoxicity against human MIAPaCa2 cells expressing K-ras G12C mutant assessed as reduction in cell viability after 96 hrs by CellTiter-Glo luminescence assay or methylene blue assay; format: functional, cell-based; details: MIA PaCa-2, 96 h
[26] = Cytotoxicity against human SK-MEL-31 cells expressing B-RAF V600E mutant assessed as reduction in cell viability after 96 hrs by CellTiter-Glo luminescence assay or methylene blue assay; format: functional, cell-based
[27] = Cytotoxicity against human BxPC3 cells assessed as reduction in cell viability after 96 hrs by CellTiter-Glo luminescence assay or methylene blue assay; format: functional, cell-based; details: BXPC-3, 96 h
[28] = Antiproliferative activity against human RL cells after 96 hrs by MTT assay; format: functional, cell-based
[29] = Cytotoxicity against human DU4475 cells expressing B-RAF V600E mutant assessed as reduction in cell viability after 96 hrs by CellTiter-Glo luminescence assay or methylene blue assay; format: functional, cell-based; details: DU-4475, 96 h
[30] = target: Nuclear factor NF-kappa-B complex (Homo sapiens) (UniProt Q00653+P19838+Q04206); assay: Inhibition of NFkappaB (unknown origin); format: protein-complex assay
Sequence of Nuclear factor NF-kappa-B complex (Homo sapiens) (P19838 whole entry, looked up): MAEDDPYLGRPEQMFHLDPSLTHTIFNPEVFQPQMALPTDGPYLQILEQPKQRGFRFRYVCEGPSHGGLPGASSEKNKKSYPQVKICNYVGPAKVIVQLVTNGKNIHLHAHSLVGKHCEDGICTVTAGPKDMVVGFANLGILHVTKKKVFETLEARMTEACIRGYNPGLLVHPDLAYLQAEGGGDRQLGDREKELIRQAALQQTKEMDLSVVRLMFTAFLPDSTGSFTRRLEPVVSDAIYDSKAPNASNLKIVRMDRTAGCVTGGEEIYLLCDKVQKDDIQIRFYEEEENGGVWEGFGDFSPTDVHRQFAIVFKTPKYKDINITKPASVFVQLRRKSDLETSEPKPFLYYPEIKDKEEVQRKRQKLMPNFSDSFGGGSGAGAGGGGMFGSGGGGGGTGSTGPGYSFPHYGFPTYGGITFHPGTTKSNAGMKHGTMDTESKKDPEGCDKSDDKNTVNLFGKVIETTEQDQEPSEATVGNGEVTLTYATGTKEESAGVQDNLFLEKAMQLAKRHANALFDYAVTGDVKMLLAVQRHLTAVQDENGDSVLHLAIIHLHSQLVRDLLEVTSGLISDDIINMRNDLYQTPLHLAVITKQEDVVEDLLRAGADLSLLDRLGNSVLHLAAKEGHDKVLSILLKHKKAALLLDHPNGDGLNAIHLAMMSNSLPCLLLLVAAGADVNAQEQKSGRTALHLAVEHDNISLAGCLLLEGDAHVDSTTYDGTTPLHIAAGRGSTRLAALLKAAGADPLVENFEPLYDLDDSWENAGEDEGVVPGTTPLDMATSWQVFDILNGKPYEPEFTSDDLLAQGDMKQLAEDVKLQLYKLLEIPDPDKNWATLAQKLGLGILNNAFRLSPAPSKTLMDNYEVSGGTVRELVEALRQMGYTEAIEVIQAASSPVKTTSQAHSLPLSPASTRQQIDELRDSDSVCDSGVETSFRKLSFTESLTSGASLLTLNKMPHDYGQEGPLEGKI
Sequence of Nuclear factor NF-kappa-B complex (Homo sapiens) (Q00653 whole entry, looked up): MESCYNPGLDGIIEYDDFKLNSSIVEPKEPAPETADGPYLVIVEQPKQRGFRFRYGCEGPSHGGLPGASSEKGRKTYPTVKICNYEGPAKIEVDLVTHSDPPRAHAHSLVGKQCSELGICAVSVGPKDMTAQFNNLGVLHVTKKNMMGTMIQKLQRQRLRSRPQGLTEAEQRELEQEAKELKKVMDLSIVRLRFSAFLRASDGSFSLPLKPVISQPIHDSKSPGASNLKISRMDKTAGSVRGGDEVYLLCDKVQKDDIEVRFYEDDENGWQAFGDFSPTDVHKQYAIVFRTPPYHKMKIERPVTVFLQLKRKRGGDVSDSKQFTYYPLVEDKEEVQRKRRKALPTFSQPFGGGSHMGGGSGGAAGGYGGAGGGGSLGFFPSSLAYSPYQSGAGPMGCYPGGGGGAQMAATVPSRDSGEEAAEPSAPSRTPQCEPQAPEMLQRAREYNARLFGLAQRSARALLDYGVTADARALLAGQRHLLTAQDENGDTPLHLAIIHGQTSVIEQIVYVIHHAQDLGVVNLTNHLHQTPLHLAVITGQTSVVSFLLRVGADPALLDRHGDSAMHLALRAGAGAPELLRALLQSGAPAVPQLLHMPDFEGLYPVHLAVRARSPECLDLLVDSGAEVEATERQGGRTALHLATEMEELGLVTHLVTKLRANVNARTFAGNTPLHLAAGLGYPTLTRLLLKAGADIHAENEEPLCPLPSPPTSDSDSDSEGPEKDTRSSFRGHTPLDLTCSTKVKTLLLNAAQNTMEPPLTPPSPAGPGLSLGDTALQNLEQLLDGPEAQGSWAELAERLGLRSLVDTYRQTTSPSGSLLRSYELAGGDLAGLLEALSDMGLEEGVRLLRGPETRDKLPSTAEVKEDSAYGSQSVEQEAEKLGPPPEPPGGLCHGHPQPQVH
Sequence of Nuclear factor NF-kappa-B complex (Homo sapiens) (Q04206 whole entry, looked up): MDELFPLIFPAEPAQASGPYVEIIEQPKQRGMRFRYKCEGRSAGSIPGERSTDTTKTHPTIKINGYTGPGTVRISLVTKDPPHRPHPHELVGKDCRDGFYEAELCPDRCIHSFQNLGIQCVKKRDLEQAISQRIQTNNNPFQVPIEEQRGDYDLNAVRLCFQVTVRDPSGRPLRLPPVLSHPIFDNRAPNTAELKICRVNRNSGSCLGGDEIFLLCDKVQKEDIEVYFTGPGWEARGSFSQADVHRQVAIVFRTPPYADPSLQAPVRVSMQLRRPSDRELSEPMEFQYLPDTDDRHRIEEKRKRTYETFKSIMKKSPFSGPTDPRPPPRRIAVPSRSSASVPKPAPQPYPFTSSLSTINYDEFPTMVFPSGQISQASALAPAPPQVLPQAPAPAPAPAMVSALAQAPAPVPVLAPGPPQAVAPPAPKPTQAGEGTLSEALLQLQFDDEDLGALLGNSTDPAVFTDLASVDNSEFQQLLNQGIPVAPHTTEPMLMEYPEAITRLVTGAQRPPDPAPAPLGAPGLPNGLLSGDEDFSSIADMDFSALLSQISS

[31] = Cytotoxicity against human AU565 cells assessed as reduction in cell viability after 96 hrs by CellTiter-Glo luminescence assay or methylene blue assay; format: functional, cell-based; details: AU565, 96 h
[32] = target: Tyrosine-protein kinase Yes (Homo sapiens) (UniProt P07947); assay: Inhibition of human Yes assessed as remaining activity at 0.1 uM after 40 mins in presence of [gamma33P-ATP] by scintillation counting
[33] = target: T1, Dual specificity mitogen-activated protein kinase kinase 1; assay: Competitive inhibition of MEK1 (unknown origin) using ERK2 as substrate after 40 mins by ELISA
[34] = as §1, with “10” for “10 to 40”, “twice weekly from first day” for “at end”, “treatment for 3 weeks” for “study”; format: functional
[35] = target: Tyrosine-protein kinase ABL1 (Homo sapiens) (UniProt P00519); assay: Inhibition of human Abl assessed as remaining activity at 0.1 uM after 40 mins in presence of [gamma33P-ATP] by scintillation counting
Sequence of Tyrosine-protein kinase ABL1 (Homo sapiens) (P00519 whole entry): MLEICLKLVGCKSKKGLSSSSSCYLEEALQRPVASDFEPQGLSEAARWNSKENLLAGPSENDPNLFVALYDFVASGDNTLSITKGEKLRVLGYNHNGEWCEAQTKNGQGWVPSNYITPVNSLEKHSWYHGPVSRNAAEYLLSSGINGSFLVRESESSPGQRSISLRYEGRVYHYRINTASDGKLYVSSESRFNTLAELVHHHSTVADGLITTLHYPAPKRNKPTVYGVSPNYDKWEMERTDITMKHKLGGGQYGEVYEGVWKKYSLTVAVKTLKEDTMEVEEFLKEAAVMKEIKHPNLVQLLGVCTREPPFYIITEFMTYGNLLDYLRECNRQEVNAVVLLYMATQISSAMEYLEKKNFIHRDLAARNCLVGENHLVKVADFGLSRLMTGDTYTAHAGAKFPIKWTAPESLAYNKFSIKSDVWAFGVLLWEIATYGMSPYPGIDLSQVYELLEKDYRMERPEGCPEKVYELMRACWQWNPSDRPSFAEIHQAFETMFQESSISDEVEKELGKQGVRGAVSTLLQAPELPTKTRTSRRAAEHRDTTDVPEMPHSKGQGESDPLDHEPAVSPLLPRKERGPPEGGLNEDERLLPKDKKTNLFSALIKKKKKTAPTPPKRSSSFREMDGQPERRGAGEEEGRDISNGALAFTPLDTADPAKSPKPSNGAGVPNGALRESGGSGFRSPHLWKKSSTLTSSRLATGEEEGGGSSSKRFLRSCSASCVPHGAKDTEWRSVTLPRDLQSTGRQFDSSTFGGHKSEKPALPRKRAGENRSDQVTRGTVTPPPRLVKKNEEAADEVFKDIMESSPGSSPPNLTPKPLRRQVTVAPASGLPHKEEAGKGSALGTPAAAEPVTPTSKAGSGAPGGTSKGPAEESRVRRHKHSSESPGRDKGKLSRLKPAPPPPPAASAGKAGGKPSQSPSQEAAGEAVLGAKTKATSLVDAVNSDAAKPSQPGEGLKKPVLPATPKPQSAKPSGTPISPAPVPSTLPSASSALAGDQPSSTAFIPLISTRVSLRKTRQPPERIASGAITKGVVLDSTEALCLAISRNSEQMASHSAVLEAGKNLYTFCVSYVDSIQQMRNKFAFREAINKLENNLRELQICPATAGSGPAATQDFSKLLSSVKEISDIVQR

[36] = Cytotoxicity against human HCT116 cells expressing K-ras G13D mutant assessed as reduction in cell viability after 96 hrs by CellTiter-Glo luminescence assay or methylene blue assay; format: functional, cell-based; details: HCT-116, 96 h
[37] = Antiproliferative activity against human RPMI8226 cells after 96 hrs by MTT assay; format: functional, cell-based; details: RPMI-8226, 96 h
[38] = target: Tyrosine-protein kinase ABL1 (Homo sapiens) (UniProt P00519); assay: Inhibition of human Abl assessed as remaining activity at 1 uM after 40 mins in presence of [gamma33P-ATP] by scintillation counting
[39] = Cytotoxicity against human SK-MEL-24 cells expressing B-RAF V600E mutant assessed as reduction in cell viability after 96 hrs by CellTiter-Glo luminescence assay or methylene blue assay; format: functional, cell-based; details: SK-MEL-24, 96 h
[40] = Cytotoxicity against human COLO205 cells expressing B-RAF V600E mutant assessed as reduction in cell viability after 96 hrs by CellTiter-Glo luminescence assay or methylene blue assay; format: functional, cell-based; details: COLO 205, 96 h

## CNc1cc(O)c2c(c1)/C=C/C[C@H](O)[C@H](O)C(=O)/C=C\[C@@H](C)[C@H](C)OC2=O
[1]
  IC50: 207 nM
[2]
  IC50: > 10000 nM
[3]
  IC50: 908 nM
[4]
  IC50: > 10000 nM
[5]
  IC50: 90 nM
[6]
  Activity: 4%
[7]
  IC50: 19 nM
[8]
  Activity: 38%
[9]
  IC50: 90 nM
[10]
  IC50: 5780 nM
[11]
  IC50: 50 nM
[12]
  IC50: 650 nM
[13]
  IC50: 466 nM
[14]
  IC50: 1000 nM
[15]
  IC50: 65 nM
[16]
  IC50: 50 nM
[17]
  Activity: 7%
[18]
  Activity: 30%
[19]
  IC50: 113 nM
[20]
  IC50: > 10000 nM
LOX
  Activity: Active
[21]
  IC50: 119 nM
[22]
  Activity: 100%
[23]
  IC50: 1430 nM
[24]
  Activity: 3%
[25]
  IC50: 582 nM
[26]
  IC50: 209 nM
[27]
  IC50: 412 nM
[28]
  IC50: 1620 nM
[29]
  IC50: 30 nM
[30]
  inhibition: Active
[31]
  IC50: > 10000 nM
[32]
  Activity: 46%
[33]
  inhibition: Active
[34]
  Activity: 100%
[35]
  Activity: 69%
[36]
  IC50: 257 nM
[37]
  IC50: > 4830 nM
[38]
  Activity: 22%
[39]
  IC50: 53 nM
[40]
  IC50: 27 nM
